# Oligonucleotides are written 5' to 3', each unit as a sugar letter and its base; * is a phosphorothioate linkage, no mark a phosphodiester; rarer units and linkages stand in square brackets, end groups in braces. Plain capitals give the bases only. k = constrained ethyl (cEt); [5mC] = 5-methylcytosine; d = 2'-deoxy (DNA)
# Tests used:
# [1] = system: mouse MALAT RNA; test: MALAT RNA reduction in vivo, C57BL6/J mice, multiple dose; details: for ED50: IV day 0, 4, 8
# Description: Compound Nos. 556089, 1229761, and 1229762 are described in Table 1 above. Compound Nos. 556089, 1229761, and 1229762 were tested in C57BL6/J mice. The mice were divided into groups of 4 mice each. […] The mice were then sacrificed on day 12. Heart, adipose, adrenal, kidney, and liver tissue was then collected and homogenized and RNA analysis was performed. A group of 4 mice received PBS as a negative control.
# RNA was extracted from heart, adipose, adrenal, kidney, and liver tissue for real-time PCR analysis of measurement of RNA expression of MALAT using primer probe set mMALAT1 #2 (forward sequence […] (SEQ ID NO: 5); reverse sequence […] (SEQ ID NO: 6); probe sequence […] (SEQ ID NO: 7)). Results are presented as percent change of RNA, relative to PBS control, normalized to mouse GAPDH.
# [2] = system: HEK-APLNR FAP cells; test: IP1 accumulation negative control in HEK-APLNR FAP cells (do not express AGTR1); type: cell-based, human; details: 24 hours
# Description: (§1) Activated AGTR1 couples to the Gαq subunit of heterotrimeric G proteins, which activates the phospholipase C (PLC) and subsequently inositol 1,4,5-trisphosphate (IP3) signaling cascade. AGTR1 signaling was measured using an IP-One Gq kit (cisbio #62IPAPEB). The kit detects the accumulation of inositol monophosphate (IP1), a stable downstream metabolite of IP3 induced by activation of a phospholipase C (PLC) cascade.
# As a negative control, Compound Nos. 556089 and 1229761 were also tested in HEK293 cells expressing FAP tagged human Apelin receptor (HEK-APLNR FAP cells from Spectragenetics). […] HEK-APLNR FAP cells were cultured with Compound Nos. 556089 and 1229761, described herein above, at the concentrations detailed in Table 2 for 24 hours.
# [3] = system: human MALAT1 RNA; test: MALAT1 RNA reduction in HEK-AGTR1 FAP cells, free uptake, 24 hours; type: cell-based; details: 24 hours; for MALAT (% control): relative to untreated control cells
# Description: (§2) At the end of the treatment period, total RNA was isolated from the cells and MALAT1 RNA levels were measured by quantitative real-time PC&. […] MALAT1 RNA levels were normalized according to total RNA content, as measured by RIBOGREEN®. Reduction of MALAT1 RNA is presented Table 3 below as percent MALAT1 RNA amount relative to untreated control (UTC) cells. The half maximal inhibitory concentration (IC50) of each modified oligonucleotide was calculated using a non-linear fit [inhibitor] vs. response—variable slope (four parameters) formula in GraphPad Prism 7.01.
# [4] = system: human MALAT1 RNA; test: MALAT1 RNA reduction in HEK-AGTR1 FAP cells, free uptake, 48 hours; type: cell-based; details: 48 hours; for MALAT (% control): relative to untreated control cells
# Description: as §2, with “PCR.” for “PC&.”, “Reduction of MALAT1 RNA is presented Table 3 below as percent MALAT1 RNA amount relative to untreated control (UTC) cells.” left out, “response-variable” for “response—variable”, “(three” for “(four”
# [5] = biological target: T1, human AGTR1 (Homo sapiens, UniProt P30556); test: AGTR1 signaling, IP-One Gq kit (IP1 accumulation), HEK-AGTR1 FAP cells; type: cell-based; details: 90 minutes
# T1 construct: host or cells: HEK293 (HEK-AGTR1 FAP cells)
# T1 sequence (P30556 1-359): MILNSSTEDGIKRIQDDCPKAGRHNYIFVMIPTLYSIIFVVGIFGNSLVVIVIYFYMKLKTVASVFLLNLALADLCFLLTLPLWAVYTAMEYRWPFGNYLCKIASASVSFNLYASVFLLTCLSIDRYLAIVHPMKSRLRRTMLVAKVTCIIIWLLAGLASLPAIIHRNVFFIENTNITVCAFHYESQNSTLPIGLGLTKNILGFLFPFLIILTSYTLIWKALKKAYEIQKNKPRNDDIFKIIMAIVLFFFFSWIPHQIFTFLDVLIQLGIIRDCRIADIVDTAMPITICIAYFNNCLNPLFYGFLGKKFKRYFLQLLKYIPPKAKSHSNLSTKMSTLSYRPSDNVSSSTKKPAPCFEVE
# Description: as §1
# An additional control compound, AngII, which consists of the peptide motif […], was also tested. […] AGTR1 activation was measured using the IP-One Gq kit.
substance,measurement,setting,value
"Compound No. 556089: Control unconjugated parent modified oligonucleotide GCATTCTAATAGCAGC, cEt gapmer, phosphorothioate, complementary to mouse MALAT1 RNA (kG*k[5mC]*kA*dT*dT*d[5mC]*dT*dA*dA*dT*dA*dG*d[5mC]*kA*kG*k[5mC]) [reference compound]",MALAT-1 RNA (% control),"[1]; Adipose, 0.4 μmol/kg IV day 0, 4, 8, sacrifice day 12, relative to PBS",68.4 % control
same,MALAT-1 RNA (% control),"[1]; Adipose, 1.2 μmol/kg IV day 0, 4, 8, sacrifice day 12, relative to PBS",41.1 % control
same,MALAT-1 RNA (% control),"[1]; Adipose, 3.6 μmol/kg IV day 0, 4, 8, sacrifice day 12, relative to PBS",27.3 % control
same,ED50,[1]; Adipose,0.034 µmol/kg
same,MALAT-1 RNA (% control),"[1]; Adrenal, 0.4 μmol/kg IV day 0, 4, 8, sacrifice day 12, relative to PBS",95.2 % control
same,MALAT-1 RNA (% control),"[1]; Adrenal, 1.2 μmol/kg IV day 0, 4, 8, sacrifice day 12, relative to PBS",75.7 % control
same,MALAT-1 RNA (% control),"[1]; Adrenal, 3.6 μmol/kg IV day 0, 4, 8, sacrifice day 12, relative to PBS",64.1 % control
same,ED50,[1]; Adrenal,1.102 µmol/kg
same,MALAT-1 RNA (% control),"[1]; Heart, 0.4 μmol/kg IV day 0, 4, 8, sacrifice day 12, relative to PBS",76.7 % control
same,MALAT-1 RNA (% control),"[1]; Heart, 1.2 μmol/kg IV day 0, 4, 8, sacrifice day 12, relative to PBS",74.7 % control
same,MALAT-1 RNA (% control),"[1]; Heart, 3.6 μmol/kg IV day 0, 4, 8, sacrifice day 12, relative to PBS",45.7 % control
same,ED50,[1]; Heart,4.11 µmol/kg
same,MALAT-1 RNA (% control),"[1]; Kidney, 0.4 μmol/kg IV day 0, 4, 8, sacrifice day 12, relative to PBS",50.0 % control
same,MALAT-1 RNA (% control),"[1]; Kidney, 1.2 μmol/kg IV day 0, 4, 8, sacrifice day 12, relative to PBS",46.7 % control
same,MALAT-1 RNA (% control),"[1]; Kidney, 3.6 μmol/kg IV day 0, 4, 8, sacrifice day 12, relative to PBS",24.6 % control
same,ED50,[1]; Kidney,3.535 µmol/kg
same,MALAT-1 RNA (% control),"[1]; Liver, 0.4 μmol/kg IV day 0, 4, 8, sacrifice day 12, relative to PBS",35.8 % control
same,MALAT-1 RNA (% control),"[1]; Liver, 1.2 μmol/kg IV day 0, 4, 8, sacrifice day 12, relative to PBS",24.1 % control
same,MALAT-1 RNA (% control),"[1]; Liver, 3.6 μmol/kg IV day 0, 4, 8, sacrifice day 12, relative to PBS",7.2 % control
same,ED50,[1]; Liver,1.578 µmol/kg
same,IP1 accumulation,[2]; 0.0256 nM,584 nM
same,IP1 accumulation,[2]; 0.128 nM,536 nM
same,IP1 accumulation,[2]; 0.64 nM,563 nM
same,IP1 accumulation,[2]; 3.2 nM,538 nM
same,IP1 accumulation,[2]; 16 nM,526 nM
same,IP1 accumulation,[2]; 80 nM,514 nM
same,IP1 accumulation,[2]; 400 nM,553 nM
same,IP1 accumulation,[2]; 2000 nM,542 nM
same,MALAT (% control),[3]; 12 nM,86 % control
same,MALAT (% control),[3]; 37 nM,98 % control
same,MALAT (% control),[3]; 111 nM,91 % control
same,MALAT (% control),[3]; 333 nM,63 % control
same,MALAT (% control),[3]; 1000 nM,60 % control
same,MALAT (% control),[3]; 3000 nM,36 % control
same,MALAT (% control),[3]; 9000 nM,29 % control
same,IC50,"[3]; MALAT1 RNA, four parameter fit",0.85 µM
same,MALAT (% control),[4]; 2.7 nM,97 % control
same,MALAT (% control),[4]; 8.2 nM,100 % control
same,MALAT (% control),[4]; 24.7 nM,104 % control
same,MALAT (% control),[4]; 74.1 nM,99 % control
same,MALAT (% control),[4]; 222.2 nM,82 % control
same,MALAT (% control),[4]; 666.7 nM,68 % control
same,MALAT (% control),[4]; 2000 nM,43 % control
same,MALAT (% control),[4]; 6000 nM,25 % control
same,MALAT (% control),[4]; .10 nM,104 % control
same,MALAT (% control),[4]; .3 nM,106 % control
same,MALAT (% control),[4]; .9 nM,101 % control
same,IC50,"[4]; MALAT1 RNA, three parameter fit",1.53 µM
same,IP1 accumulation,[5]; 0.0256 nM,696 nM
same,IP1 accumulation,[5]; 0.128 nM,669 nM
same,IP1 accumulation,[5]; 0.64 nM,692 nM
same,IP1 accumulation,[5]; 3.2 nM,658 nM
same,IP1 accumulation,[5]; 16 nM,646 nM
same,IP1 accumulation,[5]; 80 nM,605 nM
same,IP1 accumulation,[5]; 400 nM,648 nM
same,IP1 accumulation,[5]; 2000 nM,672 nM
